Source: patent US20160166487A1, “TOPICAL COMPOSITIONS FOR TREATMENT OF EXCESSIVE SWEATING AND METHODS OF USE THEREOF” (GLAXOSMITHKLINE INTELLECTUAL PROPERTY DEVELOPMENT LIMITED, priority 2013, published 2016)

Assays:
[1] = MALDI imaging of distribution in skin layers; assay type: in vitro ADME, human; details: twenty-four hours after single finite topical dose
Excerpt: Matrix-assisted laser desorption/ionization (MALDI) has emerged as a powerful and diverse technology for analyzing the spatial distribution of endogenous and exogenous compounds directly from a tissue section. [See Seeley E H, Caprioli R M. MALDI imaging mass spectrometry of human tissue: method challenges and clinical perspectives. Trends Biotechnol. 29(3), 136-143 (2011); and Svatos A. Mass spectrometric imaging of small molecules. Trends Biotechnol. 28(8), 425-434 (2010)]. […] Anal Bioanal Chem. (2013); 405(4):1159-70]. MALDI imaging in human skin tissue sections: focus on various matrices and enzymes.

[2] = Clinical study, single topical [14C] umeclidinium dose to axilla or palm of healthy male subjects; assay type: in vivo, human
Experimental: Up to four cohorts were to be enrolled (Cohort A: unoccluded axilla; Cohort B: occluded axilla; Cohort C: unoccluded palm; Cohort D: occluded palm). Six subjects were to be dosed in each cohort and complete the study procedures.
On the day of dosing, subjects will receive the study drug applied to the axilla or palm. Each subject will only receive a single dose of study drug which will be applied to the test site and remain on the application site for 8 hours. Serial blood samples will be collected throughout treatment. An interim analysis using simulations will be conducted after each cohort to determine the likelihood of exceeding the safety cover for Cmax or AUC and the likelihood of obtaining quantifiable concentrations sufficient to determine the half-life in the subsequent cohorts.

[3] = Population pharmacokinetic model of IV and occluded axilla plasma data; assay type: in vivo, human
Excerpt: Of the drug that was available systemically, 9.70% (66.7%) was absorbed through a zero order process.

[4] = Irritation potential of topical solution; details: solution comprising 2.2% w/w umeclidinium bromide
[5] = 0.5 mg (500 mcg) inhaled once daily for 10 days, thorough QT study; cited from earlier work

percent dose recovered from the skin surface, mean ([2]; Cohort A, unoccluded axilla, end of 8 hour application, range 77.7-84.1%): 80.6% | median time to maximum plasma concentration ([2]; Cohort A, unoccluded axilla, range: 12 h-30 h): 13 h | percent dose recovered from the skin surface, mean ([2]; Cohort B, occluded axilla, range 69.2%-81.7%): 75.4% | median time to maximum concentration ([2]; Cohort B, occluded axilla, range: 2 h-24 h): 13 h | plasma concentrations ([2]; Cohort D, occluded palm): no quantifiable plasma concentrations | percent dose recovered from the skin surface, mean ([2]; Cohort D, occluded palm, range 45.6%-59.9%): 52.5% | estimated absolute plasma bioavailability, mean (RSE %) ([3]; administration to occluded axilla, RSE 55.3%): 0.19% | share of systemically available drug absorbed through a zero order process, mean (RSE %) ([3]; occluded axilla, RSE 66.7%): 9.70%
Structure (SMILES): OC(c1ccccc1)(c1ccccc1)C12CC[N+](CCOCc3ccccc3)(CC1)CC2 [umeclidinium, 4-[hydroxy(diphenyl)methyl]-1-{2-[(phenylmethyl)oxy]ethyl}-1-azoniabicyclo[2.2.2]octane]
qualitative distribution in the skin layers [1]: penetrated to the deeper sections of the dermis and accumulated in the area where the sweat glands are present | irritation potential [4]: low irritation potential | tolerability [5]: well tolerated
